Source: ChEMBL document CHEMBL1201862, “PubChem BioAssay data set” (2004)
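96-well plates; 48 h exposure; 5 concentrations. Endpoints by linear interpolation between flanking doses. Not reached: highest tested concentration assigned. GI50: concentration for 50% inhibition of growth.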 The source made the active and inactive calls. Cut-off read from the data, not from the text of the source: active = GI50 up to about 1.1 µM and inactive = higher. Non-standard residues stand in square brackets, D forms with d. Residues, ends and D or L forms follow the SMILES beside them. ξ: configuration not given here. *: point of attachment. NMeF = CN[C@@H](Cc1ccccc1)C(=O)O; NMeN = CN[C@@H](CC(N)=O)C(=O)O; NMeV = CN[C@H](C(=O)O)C(C)C; ξNMeV = CNC(C(=O)O)C(C)C; Boc = CC(C)(C)OC(=O)*; ξNMeA = CNC(C)C(=O)O; ξV = CC(C)C(N)C(=O)O

Key:
Experiment in all cases: growth of human tumour cells (NCI), 48 h
[1] = test system: HOP-92
[2] = test system: RPMI-8226
[3] = test system: OVCAR-8
[4] = test system: SK-OV-3
[5] = test system: HL-60
[6] = test system: NCI-H23
[7] = test system: CAKI-1
[8] = test system: OVCAR-4
[9] = test system: PC-3
[10] = test system: SNB-75
[11] = test system: UO-31
[12] = test system: UACC-62
[13] = test system: BT-549
[14] = test system: ACHN
[15] = test system: M14
[16] = test system: IGROV-1
[17] = test system: MDA-MB-435
[18] = test system: MOLT-4
[19] = test system: A549

Row | SMILES | GI50 [1] | GI50 [2] | GI50 [3] | GI50 [4] | GI50 [5] | GI50 [6] | GI50 [7] | GI50 [8] | GI50 [9] | GI50 [10] | GI50 [11] | GI50 [12] | GI50 [13] | GI50 [14] | GI50 [15] | GI50 [16] | GI50 [17] | GI50 [18] | GI50 [19]
1 | NC(=O)c1ccc(NS(=O)(=O)c2ccc(N)cc2)nc1 | > 100 µM (inactive) | > 100 µM (inactive) | > 100 µM (inactive) | > 100 µM (inactive) | > 100 µM (inactive) | > 100 µM (inactive) | > 100 µM (inactive) | > 100 µM (inactive) | > 100 µM (inactive) | > 100 µM (inactive) | > 100 µM (inactive) | > 100 µM (inactive) | > 100 µM (inactive) | > 100 µM (inactive) | > 100 µM (inactive) | > 100 µM (inactive) | > 100 µM (inactive) | > 100 µM (inactive) | –
2 | CC(=O)O[C@H]1C(=O)[C@@]2(C)[C@H]([C@H](OC(=O)c3ccccc3)[C@]3(O)C[C@H](OC(=O)[C@H](OC(=O)OCCC(O)CO)[C@@H](NC(=O)c4ccccc4)c4ccccc4)C(C)=C1C3(C)C)[C@]1(OC(C)=O)CO[C@@H]1C[C@@H]2O (stereo not given in full) | 12.8 µM (inactive) | < 0.01 µM (active) | < 0.0221 µM (active) | 0.0104 µM (active) | < 0.01 µM (active) | < 0.01 µM (active) | 0.631 µM (active) | 17.4 µM (inactive) | < 0.0128 µM (active) | < 0.0114 µM (active) | 0.989 µM (active) | < 0.01 µM (active) | < 0.0159 µM (active) | 1.09 µM (active) | < 0.01 µM (active) | < 0.01 µM (active) | < 0.01 µM (active) | < 0.0109 µM (active) | < 0.0103 µM (active)
3 | C[C@H]1[C@H](C)CC[C@]2(C(=O)OC3OC(CO)C(O)C(O)C3O)CC[C@]3(C)C(=CC[C@@H]4[C@@]5(C)C[C@H]6OC(=O)c7cc(O)c(O)c(O)c7-c7c(cc(O)c(O)c7O)C(=O)O[C@@H]6C(CO)(CO)[C@@H]5CC[C@]43C)[C@H]12 (stereo not given in full) | > 100 µM (inactive) | > 100 µM (inactive) | 55.8 µM (inactive) | > 95.5 µM (inactive) | 44 µM (inactive) | > 100 µM (inactive) | 19.5 µM (inactive) | 27.1 µM (inactive) | > 82.6 µM (inactive) | > 100 µM (inactive) | 58.1 µM (inactive) | 99.3 µM (inactive) | > 100 µM (inactive) | > 100 µM (inactive) | > 100 µM (inactive) | > 100 µM (inactive) | 18.7 µM (inactive) | > 41.5 µM (inactive) | > 100 µM (inactive)
4 | COc1cc2c(=O)cnoc2cc1O | > 100 µM (inactive) | > 100 µM (inactive) | > 100 µM (inactive) | > 100 µM (inactive) | > 100 µM (inactive) | > 100 µM (inactive) | > 100 µM (inactive) | > 100 µM (inactive) | > 100 µM (inactive) | > 100 µM (inactive) | > 100 µM (inactive) | > 100 µM (inactive) | > 100 µM (inactive) | > 100 µM (inactive) | > 100 µM (inactive) | > 100 µM (inactive) | > 100 µM (inactive) | > 100 µM (inactive) | > 100 µM (inactive)
5 | COC(=O)C(C)N(C)C(=O)[C@H](CC(N)=O)N(C)C(=O)[C@@H]1CCCN1C(=O)[C@H](C(C)C)N(C)C(=O)C(C(C)C)N(C)C(=O)[C@H](Cc1ccccc1)N(C)C(=O)C(NC(=O)OC(C)(C)C)C(C)C (stereo not given in full) (Boc-[ξV][NMeF][ξNMeV][NMeV]P[NMeN][ξNMeA]-OMe) | 20.9 µM (inactive) | 12.4 µM (inactive) | 17.5 µM (inactive) | 46.2 µM (inactive) | 15.6 µM (inactive) | 17.6 µM (inactive) | > 50 µM (inactive) | > 50 µM (inactive) | 16.1 µM (inactive) | 6.17 µM (inactive) | 37.8 µM (inactive) | 10.2 µM (inactive) | 12.1 µM (inactive) | > 50 µM (inactive) | 15.9 µM (inactive) | 22.4 µM (inactive) | 23.2 µM (inactive) | 8.95 µM (inactive) | > 50 µM (inactive)
6 | CC1=CP(=O)(c2c(C(C)C)cc(C(C)C)cc2C(C)C)CCC1Cl (stereo not given) | 13.6 µM (inactive) | 13.3 µM (inactive) | 21.2 µM (inactive) | 19.4 µM (inactive) | 13.7 µM (inactive) | 16.6 µM (inactive) | 16.8 µM (inactive) | 19.3 µM (inactive) | 13.4 µM (inactive) | 14 µM (inactive) | 13.9 µM (inactive) | 12 µM (inactive) | 17.1 µM (inactive) | 15.9 µM (inactive) | 14 µM (inactive) | 15.4 µM (inactive) | 17.7 µM (inactive) | 6.7 µM (inactive) | 14.1 µM (inactive)
7 | COC(=O)C1CCC(=O)N1C(c1ccc(OC)cc1)c1ccc(OC)cc1 (stereo not given) | > 100 µM (inactive) | > 100 µM (inactive) | > 100 µM (inactive) | > 100 µM (inactive) | > 100 µM (inactive) | > 100 µM (inactive) | > 100 µM (inactive) | > 100 µM (inactive) | > 100 µM (inactive) | > 100 µM (inactive) | > 100 µM (inactive) | > 100 µM (inactive) | > 100 µM (inactive) | > 100 µM (inactive) | > 100 µM (inactive) | > 100 µM (inactive) | > 100 µM (inactive) | > 100 µM (inactive) | > 100 µM (inactive)
8 | O=c1c2cc(S(=O)(=O)Nc3ccc(Cl)cc3Cl)ccc2ncn1NS(=O)(=O)c1cccc2ccccc12 | 16.2 µM (inactive) | 21.1 µM (inactive) | 52.2 µM (inactive) | 66.8 µM (inactive) | 14.5 µM (inactive) | 40.4 µM (inactive) | 15.7 µM (inactive) | 41.7 µM (inactive) | 23.7 µM (inactive) | 60.5 µM (inactive) | 14.1 µM (inactive) | 28.9 µM (inactive) | 16.5 µM (inactive) | 47.5 µM (inactive) | 93.8 µM (inactive) | 20.7 µM (inactive) | 58.9 µM (inactive) | 18.2 µM (inactive) | 36.9 µM (inactive)
9 | CN(C)/C=N\c1nncc2[nH]cnc12 | 19.9 µM (inactive) | > 100 µM (inactive) | > 100 µM (inactive) | > 100 µM (inactive) | > 10 µM (inactive) | > 100 µM (inactive) | > 100 µM (inactive) | > 100 µM (inactive) | > 100 µM (inactive) | > 100 µM (inactive) | 98.6 µM (inactive) | 51.8 µM (inactive) | > 100 µM (inactive) | > 100 µM (inactive) | 55.8 µM (inactive) | > 100 µM (inactive) | 63.5 µM (inactive) | 77.6 µM (inactive) | > 100 µM (inactive)
10 | OC(O)(C(F)(F)F)C(F)(F)F | > 100 µM (inactive) | > 100 µM (inactive) | > 100 µM (inactive) | > 100 µM (inactive) | > 100 µM (inactive) | > 100 µM (inactive) | > 100 µM (inactive) | > 100 µM (inactive) | > 100 µM (inactive) | > 100 µM (inactive) | > 100 µM (inactive) | > 100 µM (inactive) | > 100 µM (inactive) | > 100 µM (inactive) | > 100 µM (inactive) | > 100 µM (inactive) | > 100 µM (inactive) | > 100 µM (inactive) | > 100 µM (inactive)
11 | OCC(O)C(O)C(O)C(O)c1nc2cc(Cl)ccc2[nH]1 (stereo not given) | > 100 µM (inactive) | > 100 µM (inactive) | > 100 µM (inactive) | 56.4 µM (inactive) | 2.14 µM (inactive) | > 100 µM (inactive) | > 100 µM (inactive) | > 100 µM (inactive) | > 100 µM (inactive) | > 100 µM (inactive) | > 100 µM (inactive) | > 100 µM (inactive) | > 100 µM (inactive) | > 100 µM (inactive) | > 100 µM (inactive) | > 100 µM (inactive) | > 100 µM (inactive) | > 100 µM (inactive) | > 100 µM (inactive)
12 | O=C(O)C1CC(O)CN1 (stereo not given) | > 100 µM (inactive) | > 100 µM (inactive) | > 100 µM (inactive) | > 100 µM (inactive) | > 100 µM (inactive) | > 100 µM (inactive) | > 100 µM (inactive) | > 100 µM (inactive) | > 100 µM (inactive) | > 100 µM (inactive) | > 100 µM (inactive) | > 100 µM (inactive) | > 100 µM (inactive) | > 100 µM (inactive) | > 100 µM (inactive) | > 100 µM (inactive) | > 100 µM (inactive) | > 100 µM (inactive) | > 100 µM (inactive)
13 | CC(C)(C)c1cc(C(=O)C2Cc3ccccc3C(=O)O2)cc(C(C)(C)C)c1O (stereo not given) | 18.2 µM (inactive) | 5.93 µM (inactive) | 10.4 µM (inactive) | 24 µM (inactive) | 4.88 µM (inactive) | 13.9 µM (inactive) | 19.3 µM (inactive) | 11 µM (inactive) | 11.7 µM (inactive) | 17.3 µM (inactive) | 11.2 µM (inactive) | 12.1 µM (inactive) | 10.5 µM (inactive) | 17.1 µM (inactive) | 12.6 µM (inactive) | 14.5 µM (inactive) | 10.7 µM (inactive) | 8.55 µM (inactive) | 13.1 µM (inactive)
14 | CC(=O)NC(Cc1c[nH]cn1)C(=O)N1CCCC1C(N)=O (stereo not given) | > 100 µM (inactive) | > 100 µM (inactive) | > 100 µM (inactive) | > 100 µM (inactive) | > 100 µM (inactive) | > 100 µM (inactive) | > 100 µM (inactive) | > 100 µM (inactive) | > 100 µM (inactive) | > 100 µM (inactive) | > 100 µM (inactive) | > 100 µM (inactive) | > 100 µM (inactive) | > 100 µM (inactive) | > 100 µM (inactive) | > 100 µM (inactive) | > 100 µM (inactive) | > 100 µM (inactive) | > 100 µM (inactive)
